# Legend:
# [1] = biological target: Stromelysin-1 (Homo sapiens) (UniProt P08254); experiment: Inhibition of MMP3
# Caspase-1 (Homo sapiens) = biological target: T1, Caspase-1 (Homo sapiens) (UniProt P29466); experiment: Inhibition of caspase 1
# T1 sequence (whole entry): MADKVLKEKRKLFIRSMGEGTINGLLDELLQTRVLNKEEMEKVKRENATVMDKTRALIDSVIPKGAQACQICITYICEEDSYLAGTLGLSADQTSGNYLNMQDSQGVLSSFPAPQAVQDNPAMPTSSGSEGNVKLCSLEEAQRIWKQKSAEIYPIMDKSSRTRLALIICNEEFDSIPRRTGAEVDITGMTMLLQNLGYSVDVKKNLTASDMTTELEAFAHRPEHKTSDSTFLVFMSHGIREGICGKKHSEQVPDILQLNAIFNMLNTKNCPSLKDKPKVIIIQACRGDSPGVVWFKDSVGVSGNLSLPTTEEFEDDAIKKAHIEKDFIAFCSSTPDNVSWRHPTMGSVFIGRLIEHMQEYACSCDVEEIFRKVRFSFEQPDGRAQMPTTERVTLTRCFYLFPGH
# Sequence of Stromelysin-1 (Homo sapiens) (P08254 100-477 limits assumed): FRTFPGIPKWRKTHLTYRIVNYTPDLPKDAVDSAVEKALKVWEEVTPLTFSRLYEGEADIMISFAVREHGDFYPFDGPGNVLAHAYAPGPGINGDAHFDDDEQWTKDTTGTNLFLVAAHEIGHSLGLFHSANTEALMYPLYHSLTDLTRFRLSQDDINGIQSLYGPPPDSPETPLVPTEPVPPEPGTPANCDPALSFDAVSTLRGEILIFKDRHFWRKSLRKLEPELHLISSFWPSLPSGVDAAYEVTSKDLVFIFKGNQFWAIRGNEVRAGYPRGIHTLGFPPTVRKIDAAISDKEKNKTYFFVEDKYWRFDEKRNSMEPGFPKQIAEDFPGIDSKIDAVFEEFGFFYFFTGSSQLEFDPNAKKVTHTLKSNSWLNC
MIC50 [1] [µM],MIC50 (Caspase-1 (Homo sapiens)) [µM],SMILES
0.3,30,C=C(CCC=C(C)C)[C@H]1C[C@@H](O)[C@](C)(O)[C@@H](O)C1=O
0.3,30,C=C(CCC=C(C)C)C1=C[C@@H](O)[C@](C)(O)[C@@H](O)C1=O
0.3,30,CC(C)=CCC/C(C)=C1\C[C@@H](O)[C@](C)(O)[C@@H](O)C1=O
